In patent US10441587B2, “Treatment of lung cancer with inhibitors of glutaminase” (Calithera Biosciences, Inc., priority 2015, dated 2019):

Columns and labels:
A549 (CALA) = experiment: Sensitivity of NSCLC cell line to CB-839; assay type: cell-based; settings: KRAS G12S, no amp, EGFR wt, n 2
H2023 (CALA) = experiment: Sensitivity of NSCLC cell line to CB-839; assay type: cell-based; settings: KRAS wt, no amp, EGFR wt, n 3
H1568 (CALA) = experiment: Sensitivity of NSCLC cell line to CB-839; assay type: cell-based; settings: KRAS wt, no amp, EGFR wt, n 4
H358 (CALA) = experiment: Sensitivity of NSCLC cell line to CB-839; assay type: cell-based; settings: KRAS G12C, no amp, EGFR wt, n 4
H2030 (CALA) = experiment: Sensitivity of NSCLC cell line to CB-839; assay type: cell-based; settings: KRAS G12C, no amp, EGFR wt, n 3
H2122 (CALA) = experiment: Sensitivity of NSCLC cell line to CB-839; assay type: cell-based; settings: KRAS G12C, no amp, EGFR wt, n 5
H2347 (CALA) = experiment: Sensitivity of NSCLC cell line to CB-839; assay type: cell-based; settings: KRAS L19F, no amp, EGFR wt, n 3
H23 (CALA) = experiment: Sensitivity of NSCLC cell line to CB-839; assay type: cell-based; settings: KRAS G12C, AMP, EGFR wt, n 4
H1703 (CALA) = experiment: Sensitivity of NSCLC cell line to CB-839; assay type: cell-based; settings: KRAS wt, AMP, EGFR wt, n 4
HCC827 (CALA) = experiment: Sensitivity of NSCLC cell line to CB-839; assay type: cell-based; settings: KRAS wt, no amp, EGFR exon 19 deletion, n 3
H441 (CALA) = experiment: Sensitivity of NSCLC cell line to CB-839; assay type: cell-based; settings: KRAS G13V, AMP, EGFR wt, n 3
H661 (CALA) = experiment: Sensitivity of NSCLC cell line to CB-839; assay type: cell-based; settings: KRAS wt, AMP, EGFR wt, n 3
H1437 (CALA) = experiment: Sensitivity of NSCLC cell line to CB-839; assay type: cell-based; settings: KRAS wt, no amp, EGFR wt, n 3
H647 (CALA) = experiment: Sensitivity of NSCLC cell line to CB-839; assay type: cell-based; settings: KRAS G13D, no amp, EGFR wt, n 3
H1650 (CALA) = experiment: Sensitivity of NSCLC cell line to CB-839; assay type: cell-based; settings: KRAS wt, no amp, EGFR exon 19 deletion, n 1
H1975 (CALA) = experiment: Sensitivity of NSCLC cell line to CB-839; assay type: cell-based; settings: KRAS wt, no amp, EGFR L858R/T790M, n 4
H226 (CALA) = experiment: Sensitivity of NSCLC cell line to CB-839; assay type: cell-based; settings: KRAS wt, no amp, EGFR wt, n 4
H2073 (CALA) = experiment: Sensitivity of NSCLC cell line to CB-839; assay type: cell-based; settings: KRAS wt, no amp, EGFR wt, n 3
H1563 (CALA) = experiment: Sensitivity of NSCLC cell line to CB-839; assay type: cell-based; settings: KRAS wt, no amp, EGFR wt, n 4
H1299 (CALA) = experiment: Sensitivity of NSCLC cell line to CB-839; assay type: cell-based; settings: KRAS wt, no amp, EGFR wt, n 3
H2085 (CALA) = experiment: Sensitivity of NSCLC cell line to CB-839; assay type: cell-based; settings: KRAS wt, no amp, EGFR no data, n 3
H838 (CALA) = experiment: Sensitivity of NSCLC cell line to CB-839; assay type: cell-based; settings: KRAS wt, AMP, EGFR wt, n 3
H1693 (CALA) = experiment: Sensitivity of NSCLC cell line to CB-839; assay type: cell-based; settings: KRAS wt, no amp, EGFR wt, n 3
ChaGo-K1 (CALA) = experiment: Sensitivity of NSCLC cell line to CB-839; assay type: cell-based; settings: KRAS wt, no amp, EGFR wt, n 3
[1] = test system: H2122 lung adenocarcinoma xenograft; experiment: Lung adenocarcinoma xenograft efficacy study; assay type: in vivo; settings: H2122 xenograft in scid/beige mice; 200 mg/kg orally BID for 23 days; vs vehicle
Procedure: Female scid/beige mice (n═20) age 6-8 weeks were implanted subcutaneously with 1×10^7 H2122 lung adenocarcinoma cells per mouse suspended in PBS. Mice were randomized into the following two groups of n=10 mice/group: 1) Vehicle control (25% Hydroxypropyl-β-cyclodextrin) and 2) Compound 670 dosed orally at 200 mg/kg (formulated at 20 mg/mL in 25% HP-β-CD). For both groups, dosing was initiated 24 hours post-implant and continued orally BID for 23 days. Tumors were measured with calipers three times per week and tumor volume calculated using the formula tumor volume (mm^3)=(a×b^2/2) where ‘b’ is the smallest diameter and ‘a’ is the largest perpendicular diameter. **P-value<0.01 (Two-sided T-test).

[2] = test system: non-small cell lung cancer cell lines exhibiting a KRAS mutation; experiment: Sensitivity of non-small cell lung cancer cell lines by mutation status; assay type: cell-based; settings: KRAS-mutant vs wild-type non-small cell lung cancer cell lines; arrested growth and/or cell death

Structure (SMILES): O=C(Cc1cccc(OC(F)(F)F)c1)Nc1ccc(CCCCc2nnc(NC(=O)Cc3ccccn3)s2)nn1 [compound 670]
- Sensitivity to CB-839 average (A549 (CALA)): −68.565
- Sensitivity to CB-839 average (H2023 (CALA)): −47
- Sensitivity to CB-839 average (H1568 (CALA)): −38
- Sensitivity to CB-839 average (H358 (CALA)): −34
- Sensitivity to CB-839 average (H2030 (CALA)): −30
- Sensitivity to CB-839 average (H2122 (CALA)): −28.637
- Sensitivity to CB-839 average (H2347 (CALA)): −14
- Sensitivity to CB-839 average (H23 (CALA)): −13
- Sensitivity to CB-839 average (H1703 (CALA)): −10
- Sensitivity to CB-839 average (HCC827 (CALA)): −9
- Sensitivity to CB-839 average (H441 (CALA)): −2.67
- Sensitivity to CB-839 average (H661 (CALA)): 1.33
- Sensitivity to CB-839 average (H1437 (CALA)): 8.33
- Sensitivity to CB-839 average (H647 (CALA)): 18.267
- Sensitivity to CB-839 average (H1650 (CALA)): 19
- Sensitivity to CB-839 average (H1975 (CALA)): 22.225
- Sensitivity to CB-839 average (H226 (CALA)): 38.75
- Sensitivity to CB-839 average (H2073 (CALA)): 57.67
- Sensitivity to CB-839 average (H1563 (CALA)): 61.5
- Sensitivity to CB-839 average (H1299 (CALA)): 68.67
- Sensitivity to CB-839 average (H2085 (CALA)): 80.667
- Sensitivity to CB-839 average (H838 (CALA)): 82
- Sensitivity to CB-839 average (H1693 (CALA)): 82.67
- Sensitivity to CB-839 average (ChaGo-K1 (CALA)): 86
- tumor size [1]: reduced tumor size
- sensitivity to treatment versus wild-type cell lines [2]: more sensitive
